According to PMC10671648, “Nucleation of α-Synuclein Amyloid Fibrils Induced by Cross-Interaction with β-Hairpin Peptides Derived from Immunoglobulin Light Chains” (International Journal of Molecular Sciences, 2023):
Values belong to the molecule of their own block, whether it stands above or below them.

Key:
αSyn(61–140) = experiment: ThT aggregation assay of αSyn(61–140) under quiescent conditions; assay type: biochemical; details: concentrations up to 50 µM
Experimental: Figure 5 Modulation of aggregation of truncated αSyn variants by SMAhp (left) and LENhp (right) in ThT assay under quiescent conditions. Buffer, 30 mM Tris-HCl, pH 7.4, with indicated salt concentration. ThT time course and AFM images of (A,C) 25 µM αSyn(1–95) or (B,D) 25 µM αSyn(61–140) in the absence (gray) and presence of SMAhp (A,B) or LENhp (C,D). Frames around the AFM images correspond to the frames in the kinetics diagrams for indication of the sample; the same color coding for SMAhp and LENhp concentrations as in the kinetic diagrams was used for the AFM image frames.
αSyn(1–95) and αSyn(61–140) were expressed from codon-optimized gene sequences in the pT7–7 vector in Escherichia coli BL21DE3, without N-terminal acetylation. Expression and purification were performed as for full-length αSyn, with the difference that, for αSyn(1–95), the anion exchange chromatography step was replaced by cation exchange chromatography using a 5 mL HiTrap SP FF column (Cytiva, Marlborough, MA, USA) and 10 mM sodium acetate buffer, pH 5, with elution in a NaCl gradient from 0 to 500 mM.
Aggregation kinetics were monitored in Greiner 96-well half-area, clear bottom, low-binding plates via ThT fluorescence in a BMG CLARIOstar plate reader. […] Plates were covered with sealing tape, placed in the plate reader, heated to 37 °C, and ThT fluorescence was read using bottom optics.

αSyn = αSyn (Homo sapiens, UniProt P37840); details: agitation conditions; ref [62]; cited from earlier work
Net charge at neutral pH = assay type: physicochemical
β-wrapin AS10 = details: cited from earlier work

net charge at neutral pH (Net charge at neutral pH): +4
Molecule: NCCCNCCCCNCCCN [spermine]
effect of spermine on ThT fluorescence of αSyn(61–140) (αSyn(61–140)): did not lead to any increase in ThT fluorescence
effect on αSyn fibril formation under agitation (αSyn): promote αSyn fibril formation

Molecule: IAPP: islet amyloid polypeptide, disease-related amyloid protein (KCNTATCATQRLANFLVHSSNNFGAILSSTNVGSNTY; Islet amyloid polypeptide; UniProt P10997 34-70, looked up)
NMR pattern with AS10 (glycine region and downfield amide resonances) (β-wrapin AS10; 1H-15N HSQC NMR of 15N-AS10, ref [57]): The same pattern has been observed before
Kd (β-wrapin AS10; read-out: KD for AS10, ref [57]): 910 nM
affinity for AS10 (β-wrapin AS10; ref [56,57,58]): sub-micromolar affinity
